A value given as a limit tells only on which side of the number the result lay.

This is an account of results in article PMC7822063, “Analogues of 2′-hydroxychalcone with modified C4-substituents as the inhibitors against human acetylcholinesterase” (Journal of Enzyme Inhibition and Medicinal Chemistry, 2020).

The target of test [1] is human recombinant AChE (Homo sapiens, UniProt P22303). Description: biochemical. Particulars: for inhibition at 10 µM / IC50: mean of triplicate; for Selectivity index: IC50 (BuChE)/IC50 (AChE). As to the method:
To determine the inhibitory activity of the target compounds towards cholinesterases, the AChE and BuChE inhibition assays were performed in 96 well plates by the method of Ellman with slight modifications. […] Then, the mixture was incubated for 20 min at 37 °C. Subsequently, the reaction was initiated by addition of 50 μL (0.120 mM) of the substrate, acetylthiocholine (ATC) iodide or butyrylthiocholine (BTC) iodide (depending on the enzyme). […] Each assay was performed in triplicate. The percentage of inhibition was calculated using the following expression: (E–S)/E ×100 where E is the activity of the enzyme without test compound and S is the activity of the enzyme with the test compound. IC50 values were obtained from concentration-inhibition experiments by nonlinear regression analysis using PRISM® v5.0 (GraphPad Inc., San Diego, CA).
The designed 2′-hydroxychalcone derivatives were evaluated for their in vitro inhibitory activities against human recombinant AChE according to Ellman’s colorimetric assay method.

For test [2], the target named is equine BuChE (Equus caballus, UniProt P81908). Description: biochemical. Particulars: mean of triplicate. The test is classed as biochemical.
equine BuChE, sequence (P81908 whole entry): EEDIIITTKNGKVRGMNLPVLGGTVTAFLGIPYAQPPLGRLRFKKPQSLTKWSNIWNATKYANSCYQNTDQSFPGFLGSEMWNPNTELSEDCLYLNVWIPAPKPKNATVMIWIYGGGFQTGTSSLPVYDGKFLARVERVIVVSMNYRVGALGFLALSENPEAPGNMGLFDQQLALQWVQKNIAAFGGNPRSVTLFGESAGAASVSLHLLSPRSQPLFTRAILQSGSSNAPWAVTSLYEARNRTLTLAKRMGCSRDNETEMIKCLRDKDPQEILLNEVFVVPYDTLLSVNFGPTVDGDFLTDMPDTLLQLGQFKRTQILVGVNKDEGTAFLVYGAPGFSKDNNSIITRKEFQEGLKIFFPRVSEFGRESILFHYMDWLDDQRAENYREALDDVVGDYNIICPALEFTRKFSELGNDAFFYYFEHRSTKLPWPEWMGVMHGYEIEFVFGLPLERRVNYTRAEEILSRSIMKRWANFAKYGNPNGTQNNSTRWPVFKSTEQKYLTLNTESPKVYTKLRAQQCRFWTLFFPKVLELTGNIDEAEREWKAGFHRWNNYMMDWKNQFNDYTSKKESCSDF

human recombinant AChE, sequence (P22303 32-614): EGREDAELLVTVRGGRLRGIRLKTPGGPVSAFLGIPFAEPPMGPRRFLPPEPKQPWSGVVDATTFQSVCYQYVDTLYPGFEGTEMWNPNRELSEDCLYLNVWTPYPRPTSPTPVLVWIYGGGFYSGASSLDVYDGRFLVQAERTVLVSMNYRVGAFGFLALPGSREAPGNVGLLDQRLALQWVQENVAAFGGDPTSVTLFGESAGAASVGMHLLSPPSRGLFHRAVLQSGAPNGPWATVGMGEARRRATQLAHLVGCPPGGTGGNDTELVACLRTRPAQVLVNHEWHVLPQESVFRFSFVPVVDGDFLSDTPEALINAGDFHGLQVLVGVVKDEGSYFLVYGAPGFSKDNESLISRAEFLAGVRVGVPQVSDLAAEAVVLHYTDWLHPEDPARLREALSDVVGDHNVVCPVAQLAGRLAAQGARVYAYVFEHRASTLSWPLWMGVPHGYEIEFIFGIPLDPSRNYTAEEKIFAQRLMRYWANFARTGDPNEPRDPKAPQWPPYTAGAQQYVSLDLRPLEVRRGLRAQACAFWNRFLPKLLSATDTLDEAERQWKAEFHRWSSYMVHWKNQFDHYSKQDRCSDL

Broadly, the inhibition is the drop in the measured response relative to a control, in per cent. Turning to `CCN(CC)C(=O)Cc1ccc(/C=C/C(=O)c2ccc(OC)cc2O)cc1` [Compound 4a, (E)-N,N-diethyl-2-(4-(3-(2-hydroxy-4-methoxyphenyl)-3-oxoprop-1-en-1yl)phenyl)acetamide], in test [1], the inhibition at 10 µM worked out at 67.2%.

Consider `CCN(CC)C(=O)Cc1ccc(/C=C/C(=O)c2cc(OC)c(OC)cc2O)cc1` [Compound 4b, (E)-N,N-diethyl-2-(4-(3-(2-hydroxy-4,5-dimethoxyphenyl)-3-oxoprop-1-en-1-yl)phenyl)acetamide], for which, in test [1], the inhibition at 10 µM came to 58.5%.

One may read the IC50 as the concentration that inhibits the measured activity by half. As to `CCN(CC)C(=O)Cc1ccc(/C=C/C(=O)c2c(O)cc(OC)cc2OC)cc1` [Compound 4c, (E)-N,N-diethyl-2-(4-(3-(2-hydroxy-4,6-dimethoxyphenyl)-3-oxoprop-1-en-1-yl)phenyl)acetamide], in test [1], the inhibition at 10 µM amounted to 87.5%, the Selectivity index was greater than 30 and the half-maximal inhibitory concentration (IC50) was found to be 3.3 ± 1.3 µM. This compound had an IC50 in test [2] greater than 100 µM.

For `COc1ccc(C(=O)/C=C/c2ccc(CC(=O)N3CCCC3)cc2)c(O)c1` [Compound 4d, (E)-1-(2-hydroxy-4-methoxyphenyl)-3-(4-(2-oxo-2-(pyrrolidin-1-yl)ethyl)phenyl)prop-2-en-1-one], the inhibition at 10 µM in test [1] came out at 30.8%.

For the compound `COc1cc(O)c(C(=O)/C=C/c2ccc(CC(=O)N3CCCC3)cc2)cc1OC` [Compound 4e, (E)-1-(2-hydroxy-4,5-dimethoxyphenyl)-3-(4-(2-oxo-2-(pyrrolidin-1-yl)ethyl)phenyl)prop-2-en-1-one], the inhibition at 10 µM in test [1] is 58.9%.

For the compound `O=C(O)Cc1ccc(/C=C/C(=O)c2ccccc2O)cc1` [Compound 4f, (E)-2-(4-(3-(2-hydroxyphenyl)-3-oxoprop-1-en-1-yl)phenyl)acetic acid], in test [1], the inhibition at 10 µM came to 10.7%.

Take `COc1ccc(O)c(C(=O)/C=C/c2ccc(CC(=O)O)cc2)c1` [Compound 4g, (E)-2-(4-(3-(2-hydroxy-5-methoxyphenyl)-3-oxoprop-1-en-1-yl)phenyl)acetic acid]: in test [1], the inhibition at 10 µM was found to be 27%.

As to `COc1cc(O)c(C(=O)/C=C/c2ccc(CC(=O)O)cc2)c(OC)c1` [Compound 4h, (E)-2-(4-(3-(2-hydroxy-4,6-dimethoxyphenyl)-3-oxoprop-1-en-1-yl)phenyl)acetic acid], the inhibition at 10 µM in test [1] worked out at 15.6%.

`COc1ccc(C(=O)/C=C/c2ccc(OCCN3CCCCC3)cc2)c(O)c1` [Compound 8a, (E)-1-(2-hydroxy-4-methoxyphenyl)-3-(4-(2-(piperidin-1-yl)ethoxy)phenyl)prop-2-en-1-one]: in test [1], the inhibition at 10 µM was 79.9%, the Selectivity index is reported as greater than 24 and the half-inhibitory concentration (IC50) stood at 4.2 ± 1.3 µM. Further, in test [2], the “Equine BuChE IC50” value was “inactive” and the half-inhibitory concentration (IC50) is greater than 100 µM.

Take `COc1ccc(C(=O)/C=C/c2ccc(OCCN3CCCC3)cc2)c(O)c1` [Compound 8b, (E)-1-(2-hydroxy-4-methoxyphenyl)-3-(4-(2-(pyrrolidin-1-yl)ethoxy)phenyl)prop-2-en-1-one]: in test [1], the inhibition at 10 µM worked out at 83%, the Selectivity index was 5.1 and the IC50 worked out at 12.8 ± 4.8 µM. In addition, the 50% inhibitory concentration (IC50) in test [2] stood at 65.6 ± 14.8 µM.

In the case of `COc1cc(O)c(C(=O)/C=C/c2ccc(OCCN3CCCCC3)cc2)cc1OC` [Compound 8c, (E)-1-(2-hydroxy-4,5-dimethoxyphenyl)-3-(4-(2-(piperidin-1-yl)ethoxy)phenyl)prop-2-en-1-one], the inhibition at 10 µM in test [1] came to 52.5%.

In the case of `COc1cc(O)c(C(=O)/C=C/c2ccc(OCCN3CCCC3)cc2)cc1OC` [Compound 8d, (E)-1-(2-hydroxy-4,5-dimethoxyphenyl)-3-(4-(2-(pyrrolidin-1-yl)ethoxy)phenyl)prop-2-en-1-one], in test [1], the inhibition at 10 µM is 80.6%, the Selectivity index is 5.7 and the half-inhibitory concentration (IC50) was found to be 15.9 ± 1.8 µM. In test [2], the IC50 was 89.9 ± 12 µM.

On to `COc1cc(O)c(C(=O)/C=C/c2ccc(OCCN3CCCCC3)cc2)c(OC)c1` [Compound 8e, (E)-1-(2-hydroxy-4,6-dimethoxyphenyl)-3-(4-(2-(piperidin-1-yl)ethoxy)phenyl)prop-2-en-1-one], for which, in test [1], the inhibition at 10 µM was 83.6%, the Selectivity index is recorded as 4.0 and the IC50 turned out to be 4.6 ± 0.9 µM. Moreover, in test [2], the IC50 came to 18.3 ± 8 µM.

`COc1cc(O)c(C(=O)/C=C/c2ccc(OCCN3CCCC3)cc2)c(OC)c1` [Compound 8f, (E)-1-(2-hydroxy-4,6-dimethoxyphenyl)-3-(4-(2-(pyrrolidin-1-yl)ethoxy)phenyl)prop-2-en-1-one]: in test [1], the inhibition at 10 µM is 81.4%, the Selectivity index was found to be 1.7 and the half-inhibitory concentration (IC50) was determined as 18.5 ± 3.8 µM. In test [2], this compound came in with an IC50 of 31.3 ± 8.2 µM.
